Data set [1] has as its system BALB/c mice. As to the kind of experiment: Plasma EPO in mice IV injected with 3 μg TransIT-complexed EPO mRNA (ELISA). In kind it is in vivo. On the procedure:
(§1) To confirm in vitro data, female BALB/c mice from Jackson Laboratory (Bar Harbor, ME, USA) at the age of eight to ten weeks were used for in vivo experiment in accordance with federal policies on animal research (Ethics approval number: G18-12-027). Mice (n=3/group) were injected intravenously (i.v.) with 3 μg TransIT-complexed (Mirus Bio) EPO mRNAs in a final volume of 200 μL Dulbecco's modified Eagle medium (DMEM). Mice used as controls were injected with TransIT-reagent diluted in DMEM but without RNA. Mice were injected with EPO mRNA complexed with TransIT-reagent and EPO levels in plasma were measured using ELISA (FIG. 8A). Hematocrit was measured from 18 μl of blood that was collected at the indicated times using centrifugation in Drummond microcaps glass capillary tubes (20 μl volume, Merck, Germany) as described (20) (FIG. 8B). After determination of the hematocrit, capillary tubes were snapped open, and the plasma was collected to measure EPO levels and analyzed for mouse Erythropoietin DuoSet ELISA kit (R&D Systems) according to the manufacturer's instructions. […] EPO RNA containing m1Ψ translated two-fold more than U-containing mRNA at each time points (FIG. 8A). Both compound I′-1 and compound I′-6 are suitable for translation of the encoded protein and each cap analog can be used for synthesizing of non-replicating functional mRNAs (FIG. 8A, 8B).
(§2) In each in vivo experiment in order to measure the translational efficiency and to determine the functionality of EPO mRNA capped with I′-1, I′-2, I′-3, I′-5, I′-6, I′-9, I′-12, I′-13, I′-16, CC114, and CC413 in vivo, female BALB/c mice from Jackson Laboratory (Bar Harbor, ME, USA) at the age of eight to ten weeks were used for in accordance with federal policies on animal research (Ethics approval number: G19-12-074). In each case, mice (n=3/group) were injected intravenously (i.v.) with 3 μg TransIT-complexed (Mirus Bio) EPO mRNAs in a final volume of 200 μL Dulbecco's modified Eagle medium (DMEM). Mice used as controls were injected with TransIT-reagent diluted in DMEM but without RNA. To measure hematocrits and EPO levels in the individual mice that were injected with EPO mRNA capped with I′-6, I′-1, CC114, and CC413 and complexed with TransIT-reagent, 18 μL of blood was collected at the indicated times (FIG. 8B) and centrifuged in Drummond microcaps glass capillary tubes (20 μl volume, Merck, Germany) as described (19). After determination of the hematocrit, capillary tubes were snapped open, and the plasma was collected to measure EPO levels and analyzed for mouse Erythropoietin DuoSet ELISA kit (R&D Systems) according to the manufacturer's instructions. […] EPO RNA containing m1Ψ modifications translated 2-3-fold, 5-fold, and 10-fold more than U-containing mRNAs at 6-24, 48 and 72 hours after injections, respectively. (FIG. 8A). […] To address translation of I′-6-capped mRNA in human primary hepatocytes, EPO level was measured from supernatants transfected using 0.1 μg/well TransIT-formulated I′-6- or CC114-capped uRNA (FIG. 13).
To this end, we generated U-containing as well as m1Ψ-modified EPO RNA capped with cap analogs which belong to either the non-ARCA (I′-13) or ARCA (I′-6) classes. Moreover, the latter ones contain 2′-OMe (I′-5) or 3′-OMe (I′-6) at the ribose of the m7G moiety. Three μg of TransIT-complexed EPO mRNA capped with nucleoside modification-containing NeoCaps I′-13, I′-5 and I′-6 cap analogs were injected into mice intravenously. After that EPO level of plasma collected from mice was measured at 6, 24 and 48 hours after administration to compare the translational activity of mRNA capped with NeoCaps with U-containing or m1Ψ-modified mRNA capped with non-modified ARCA 3′OMe I′-1.
Plasma EPO level of mice injected with 3 μg of each TransIT-complexed mRNA was determined using murine EPO-specific ELISA at 6, 24, 48 and 72 hours after intravenous administration. […]
(In general: An ELISA detects its analyte on a solid surface through an enzyme-linked reagent.)

Data set [2] has as its system human primary hepatocytes. Kind of data set: EPO secretion in human primary hepatocytes transfected with TransIT-EPO mRNA (ELISA). The format is cell-based. On the procedure: To measure the translational efficiency of EPO mRNA capped with compound I′-1, compound I′-6, CC114, and CC413 in vitro, human primary hepatocytes were seeded into 96-well plates at a density of 2.5×10^4 cells per well and were transfected with mRNA samples (0.1 μg) complexed with TransIT reagent (Mirus Bio, Madison, WI, USA) in a final volume of 200 μL in InVitroGRO CP Medium (Sigma-Aldrich) supplemented with Thorpedo Antibiotic Mix (Sigma-Aldrich). To quantify EPO levels, the supernatant was collected at 1, 2, 3, 4, 5 and 6 day after transfection and EPO levels were analyzed by mouse Erythropoietin DuoSet ELISA kit (R&D Systems, Minneapolis, MN, USA) according to the manufacturer's instructions.
as §2
To test if various uridine (U) or pseudouridine (Ψ) derivatives of cap analogues can improve translation in human primary hepatocytes, we first measured EPO secretion after application of EPO-encoding Ψ-mRNA capped with compounds described herein analog bearing pseudouridine (I′-3) or CC413 (no modification). […] In addition, all tested modification bearing caps led to increase in EPO secretion at 24 h and 48 h when compared to the unmodified I′-1 (FIG. 16).

Data set [3] concerns BALB/c mice. Kind of data set: Hematocrit in mice IV injected with 3 μg TransIT-complexed EPO mRNA. Particulars: D14 after injection. The format is in vivo. On the procedure:
as §1, §2

In data set [4] the test system is human PBMCs. As to the kind of experiment: Cytokine/chemokine secretion in human PBMCs (MSD V-PLEX). The conditions noted are these: for proinflammatory cytokine/chemokine responses compared to m1Ψ-modified mRNA: lipid-complexed U-containing mRNA, even at lowest dose 0.5 μg/ml. In kind it is cell-based. The method, then:
Human buffy coats from healthy individuals were obtained from the Faculty of Medicine of Johannes Gutenberg University, Mainz and used to isolate peripheral blood mononuclear cells (PBMCs) on a Ficoll-Paque™ PLUS (Cytiva, Marlborough, MA, USA) density gradient. In preparation for mRNA transfection, cryopreserved PBMCs were thawed and seeded into 96-well plates at a density of 5×10^5 cells per well in 190 μL RPMI medium supplemented with 1% non-essential amino acids (NEAA), 1% sodium pyruvate and 10% Fetal Bovine Serum (Merck, Germany). Cells were maintained at 37° C. with 5% CO2 until transfection with 0.5, 1.5, 5.0 and 15 μg/ml lipoplex-formulated EPO mRNA (LPX-RNA), as described in Kranz, L. M., et al. (2016) Nature, 534, 396-401. The complexed RNA (10 μl per well) was added in triplicates and supernatants were collected at 24 h after transfection to perform single cell cytotoxicity assay and to measure the cytokine/chemokine profile. To determine the cell viability and the production of selected cytokines/chemokines, supernatants from human PBMCs transfected with LPX-RNA were subjected to XTT cytotoxicity test using Cell Proliferation Kit II (Sigma-Aldrich) and cytokine/chemokine profile analysis using the Meso Scale Discovery V-PLEX Custom Human Biomarkers Proinflammatory and Chemokine Panel (Meso Scale Diagnostics—MSD, Rockville, MD, USA) according to the manufacturer's instructions, respectively. In regards of cytokine/chemokine profile analysis, a sample dilution of 1:5 (supernatant:MSD diluent) was used in each experiment. The levels of IL-6 (Interleukin 6), TNF-α (Tumor necrosis factor alpha), IL-1 (Interleukin 1 beta), IFN-γ (Interferon gamma), MCP-1 (Monocyte Chemoattractant Protein-1), […] (Macrophage inflammatory protein 1 beta) and IL-10 (Interleukin 10) were quantified 24 h after the mRNA transfection. […] This low immunogenicity can be directly attributed to the nucleoside modifications incorporated into the mRNA. To illustrate this, cells treated with lipid-complexed U-containing mRNA capped with compound I′-1, CC114 and CC413 induced much higher proinflammatory cytokine/chemokine responses even at their lowest dose (0.5 μg/ml) when compared to m1Ψ-modified mRNA (FIG. 6).
To test the effect of the cap types and mRNA 5′end on immunogenicity in human peripheral blood monocyte cells (PBMCs) we compared changes in levels of cytokines and chemokines after application of Lipoplex (LPX)-formulated EPO mRNAs. First, we compared the impact of m1Ψ-mRNA capped with I′-6 containing a UAGU 5′end vs. CC413 (AGAAU 5′end) (FIG. 12). […] Second, we compared capped EPO uRNA with I′-6 or I′-1 (FIG. 14). In this case both mRNAs had the same TAGT 5′end. […] Thus, benefit of I′-6 in decreasing the immunogenicity and thus increasing safety was found when I′-6 was used.

The test system of data set [5] is human PBMCs. Kind of data set: XTT cytotoxicity test of PBMCs transfected with LPX-formulated EPO mRNA. The format is cell-based. Particulars: 24 h, up to 1 μg/well mRNA. On the procedure: Human buffy coats from healthy individuals were obtained from the Faculty of Medicine of Johannes Gutenberg University, Mainz and used to isolate peripheral blood mononuclear cells (PBMCs) on a Ficoll-Paque™ PLUS (Cytiva, Marlborough, MA, USA) density gradient. In preparation for mRNA transfection, cryopreserved PBMCs were thawed and seeded into 96-well plates at a density of 5×10^5 cells per well in 190 μL RPMI medium supplemented with 1% non-essential amino acids (NEAA), 1% sodium pyruvate and 10% Fetal Bovine Serum (Merck, Germany). Cells were maintained at 37° C. with 5% CO2 until transfection with 0.5, 1.5, 5.0 and 15 μg/ml lipoplex-formulated EPO mRNA (LPX-RNA), as described in Kranz, L. M., et al. (2016) Nature, 534, 396-401. The complexed RNA (10 μl per well) was added in triplicates and supernatants were collected at 24 h after transfection to perform single cell cytotoxicity assay and to measure the cytokine/chemokine profile. […] The levels of IL-6 (Interleukin 6), TNF-α (Tumor necrosis factor alpha), IL-1 (Interleukin 1 beta), IFN-γ (Interferon gamma), MCP-1 (Monocyte Chemoattractant Protein-1), […] (Macrophage inflammatory protein 1 beta) and IL-10 (Interleukin 10) were quantified 24 h after the mRNA transfection. […]
(In general: Formazan colour is commonly taken as a measure of viable cells.)

In the case of `COC1C(OP(=O)(O)OC[C@H]2O[C@@H](c3c[nH]c(=O)[nH]c3=O)C(O)C2O)[C@@H](COP(=O)(O)OP(=O)([O-])OP(=O)(O)OC[C@H]2O[C@@H](n3c[n+](C)c4c(O)nc(N)nc43)C(O)C2OC)O[C@H]1n1cnc2c(N)ncnc21` (stereo partly drawn) [I′-3, m^7G(^3′-OMe)pppA(2′-OMe)pΨ], in data set [1] (m1Ψ-modified mRNA, 48 and 72 hours after injection), the “EPO level compared to I′-6” value is recorded as “equal or slightly less”. Besides, the “level of EPO compared to CC413” value in data set [2] (EPO-encoding Ψ-mRNA, 24 h and 48 h) is listed as “higher”.
For “(m^7)Gppp(m^2′-O)ApU [CC114, reference compound]”, the “decrease of hematocrit values from D14” value in data set [3] was “started to decrease at D14”. Besides, the “proinflammatory cytokine/chemokine responses compared to m1Ψ-modified mRNA” value in data set [4] is on record as “much higher”.
For the compound `COC1C(OP(=O)([O-])OC[C@H]2O[C@@H](n3ccc(=O)[nH]c3=O)C(O)C2O)[C@@H](COP(=O)(O)OP(=O)(O)OP(=O)(O)OC[C@H]2O[C@@H](n3c[n+](C)c4c(O)nc(N)nc43)C(O)C2OC)O[C@H]1n1cnc2c(N)ncnc21` (stereo partly drawn) [I′-1, m^7G(^3′-OMe)pppA(2′-OMe)pU], in data set [1] (U-containing mRNA, each time point), the “translational capacity compared with m1Ψ in cap (I′-6) and mRNA” value was “significantly lower”. Besides, in data set [1] (regardless of the RNA modification), the “translation of ARCA analogs compared to non-ARCA caps CC114 and I′-13” value is recorded as “significantly better”. Moreover, the “translation (EPO secretion) compared to CC413” value in data set [2] (0.1 μg/well TransIT-EPO mRNA, 24 hrs) was “higher translation”. For the same compound, the “translation compared to CC413” value in data set [2] (unmodified RNA, each time point after transfection (day 1-6)) was “higher translation”. Moreover, the “toxic effect on cell viability (XTT)” value in data set [5] was “no toxic effect”. In data set [3], the “decrease of hematocrit values from D14” value is “not observed”. Moreover, the “proinflammatory cytokine/chemokine responses compared to m1Ψ-modified mRNA” value in data set [4] is given as “much higher”. The “cytokines/chemokines, compared with CC413” value in data set [4] (unmodified mRNA, 24 h) is recorded as “significantly higher”.
With `COC1C(OP(=O)(O)OC[C@H]2O[C@@H](c3cn(C)c(=O)[nH]c3=O)C(O)C2O)[C@@H](COP(=O)(O)OP(=O)([O-])OP(=O)(O)OC[C@H]2O[C@@H](n3c[n+](C)c4c(O)nc(N)nc43)C(O)C2O)O[C@H]1n1cnc2c(N)ncnc21` (stereo partly drawn) [I′-13, m^7GpppA(2′-OMe)pm^1Ψ], the “translation of m1Ψ-mRNA capped with I′-13 relative to U-mRNA capped with CC114” value in data set [1] (6 h after injection) amounted to 8 fold; in data set [1] (24 h after injection), 25 fold. Besides, the “translation compared to mRNA capped with non-modified ARCA cap” value in data set [1] (each tested time point (6, 24, 48 h), regardless of the mRNA modification) was “at least two-fold better”.
On to “(m2^7,3′-O)Gppp(m^2′-O)ApG [CC413, reference compound]”, for which the “translational efficiency and biological activity (murine EPO, hematocrit %) of EPO mRNA” value in data set [1] (FIG. 1, CC413 vs CC113) is recorded as “significantly better than CC113”. In data set [3], the “decrease of hematocrit values from D14” value is reported as “started to decrease at D14”. Further, the “proinflammatory cytokine/chemokine responses compared to m1Ψ-modified mRNA” value in data set [4] was “much higher”.

The record behind these values is US20260109727A1, “RNA CONSTRUCTS AND USES THEREOF” (BioNTech SE, priority 2022, published 2026).
